Test system: not given
Assay: not given
Conditions: not given

melting point | SMILES
143 to 145 °C | CCCCCOc1ccc(Cn2c(/C=C(\C)C(=O)NS(=O)(=O)/C=C/c3ccccc3)cnc2C)c(Cl)c1 [Example 70, (E)-3-(1-(2-chloro-4-(1-pentyloxy)benzyl)-2-methylimidazol-5-yl)-2-methyl-N-((E)-2-phenylethenesulfonyl)-2-propenamide]
207 to 210 °C | CCC/C=C/S(=O)(=O)NC(=O)/C=C/c1c(Cl)nc(C)n1Cc1ccc(C#Cc2ccccc2)cc1Cl [Example 45, (E)-3-(4-chloro-1-(2-chloro-4-(phenylethynyl)benzyl)-2-methylimidazol-5-yl)-N-((E)-1-penten-1-ylsulfonyl)-2-propenamide]
209 to 210 °C | CCc1nc(Cl)c(/C=C/C(=O)NS(=O)(=O)/C=C/c2ccccc2)n1Cc1ccc(Br)cc1Cl [Example 53, (E)-3-(1-(4-bromo-2-chlorobenzyl)-4-chloro-2-ethylimidazol-5-yl)-N-((E)-2-phenylethenesulfonyl)-2-propenamide]
261 to 263 °C | Cc1nc(Cl)c(/C=C/C(=O)NS(=O)(=O)/C=C/c2ccccc2)n1Cc1ccc(C(F)(F)F)cc1Cl [Example 29, (E)-3-(4-chloro-1-(2-chloro-4-(trifluoromethyl)benzyl)-2-methylimidazol-5-yl)-N-(((E)-2-phenylethenyl)sulfonyl)-2-propenamide]
229 to 233 °C | Cc1nc(Cl)c(/C=C/C(=O)NS(=O)(=O)c2ccc(Cl)s2)n1Cc1ccc(-c2ccccc2)cc1Cl [Example 13, (E)-3-(4-chloro-1-(2-chloro-4-phenylbenzyl)-2-methylimidazol-5-yl)-N-((5-chloro-2-thienyl)sulfonyl)-2-propenamide]
165 to 167 °C | CCCCS(=O)(=O)NC(=O)/C=C/c1c(Cl)nc(CC)n1Cc1ccc(C#Cc2ccccc2)cc1Cl [Example 56, (E)-N-(1-butanesulfonyl)-3-(4-chloro-1-(2-chloro-4-(phenylethynyl)benzyl)-2-ethylimidazol-5-yl)-2-propenamide]
109 to 111 °C | CCCCCOc1ccc(Cn2c(C)nc(Cl)c2COC(=O)NS(=O)(=O)c2ccc(C)cc2)c(Cl)c1 [Example 73, (4-chloro-1-(2-chloro-4-(1-pentyloxy)benzyl)-2-methyl-1H-imidazol-5-yl)methyl N-(4-methylbenzenesulfonyl)carbamate]
220 to 222 °C | Cc1nc(Cl)c(/C=C/C(=O)NS(=O)(=O)/C=C/c2ccccc2)n1Cc1ccc(C#Cc2ccccc2)cc1Cl [Example 6, (2E)-3-(4-chloro-1-(2-chloro-4-(phenylethynyl)benzyl)-2-methylimidazol-5-yl)-N-(((E)-2-phenylethenyl)sulfonyl)-2-propenamide]
210 to 212 °C | Cc1nc(Cl)c(/C=C/C(=O)NS(=O)(=O)/C=C/c2ccccc2)n1Cc1ccc(OCC2CCCCC2)cc1Cl [Example 23, (2E)-3-(4-chloro-1-(2-chloro-4-((cyclohexyl)methyloxy)benzyl)-2-methylimidazol-5-yl)-N-(((E)-2-phenylethenyl)sulfonyl)-2-propenamide]
107 to 110 °C | CCCCCOc1ccc(Cn2c(C)nc(Cl)c2C(=O)NS(=O)(=O)/C=C/c2ccccc2)c(Cl)c1 [Example 72, 4-chloro-1-(2-chloro-4-(1-pentyloxy)benzyl)-2-methyl-5-((E)-2-phenylethenesulfonyl-carbamoyl)-1H-imidazole]
173 to 175 °C | CCC/C=C/S(=O)(=O)NC(=O)/C=C/c1c(Cl)nc(CC)n1Cc1ccc(C#Cc2ccccc2)cc1Cl [Example 58, (E)-3-(4-chloro-1-(2-chloro-4-(phenylethynyl)benzyl)-2-ethylimidazol-5-yl)-N-((E)-1-penten-1-ylsulfonyl)-2-propenamide]

The remaining lines, values behind:

SMILES | melting point
CCCCCS(=O)(=O)NC(=O)/C=C/c1c(Cl)nc(C)n1Cc1ccc(C#Cc2ccccc2)cc1Cl [Example 44, (E)-3-(4-chloro-1-(2-chloro-4-(phenylethynyl)benzyl)-2-methylimidazol-5-yl)-N-(1-pentanesulfonyl)-2-propenamide] | 207 to 209 °C
CCCCCOc1ccc(Cn2c(C)nc(Br)c2/C=C/C(=O)NS(=O)(=O)/C=C/c2ccccc2)c(Cl)c1 [Example 65, (E)-3-(4-bromo-1-(2-chloro-4-(1-pentyloxy)benzyl)-2-methylimidazol-5-yl)-N-((E)-2-phenylethenesulfonyl)-2-propenamide] | 208 to 209 °C
CCC/C=C/S(=O)(=O)NC(=O)/C=C/c1c(Cl)nc(C)n1Cc1ccc(NC(=O)OC(C)(C)C)cc1Cl [Example 50, (E)-3-(1-(4-(tert-butoxycarbonylamino)-2-chlorobenzyl)-4-chloro-2-methylimidazol-5-yl)-N-((E)-1-penten-1-ylsulfonyl)-2-propenamide] | 209 to 210 °C
CCCCCS(=O)(=O)NC(=O)/C=C/c1c(Cl)nc(C)n1Cc1ccc(NC(=O)OC(C)(C)C)cc1Cl [Example 49, (E)-3-(1-(4-(tert-butoxycarbonylamino)-2-chlorobenzyl)-4-chloro-2-methylimidazol-5-yl)-N-(1-pentanesulfonyl)-2-propenamide] | 202 to 204 °C
CCCCCS(=O)(=O)NC(=O)/C=C/c1c(Cl)nc(C)n1Cc1ccc(OCC2CCCC2)cc1Cl [Example 19, (E)-3-(4-chloro-1-(2-chloro-4-((cyclopentyl)methyloxy)benzyl)-2-methylimidazol-5-yl)-N-(1-pentanesulfonyl)-2-propenamide] | 177 to 178 °C
CSc1ccc(Cn2c(C)nc(Cl)c2/C=C/C(=O)NS(=O)(=O)/C=C/c2ccccc2)c(Cl)c1 [Example 27, (E)-3-(4-chloro-1-(2-chloro-4-(methylthio)benzyl)-2-methylimidazol-5-yl)-N-(((E)-2-phenylethenyl)sulfonyl)-2-propenamide] | 237 to 238 °C
CCCCCOc1ccc(Cn2c(C)nc(Cl)c2/C=C/C(=O)NS(=O)(=O)/C=C/c2ccccc2)c(Cl)c1 [Example 18, (E)-3-(4-chloro-1-(2-chloro-4-(1-pentyloxy)benzyl)-2-methylimidazol-5-yl)-N-(((E)-2-phenylethenyl)sulfonyl)-2-propenamide] | 196 to 199 °C
Cc1nc(Cl)c(/C=C/C(=O)NS(=O)(=O)/C=C/c2ccccc2)n1Cc1ncc(C(F)(F)F)cc1Cl [Example 47, (E)-3-(4-chloro-1-((3-chloro-5-(trifluoromethyl)pyridin-2-yl)methyl)-2-methylimidazol-5-yl)-N-((E)-2-phenylethenylsulfonyl)-2-propenamide] | 249 to 252 °C
CCc1nc(Cl)c(/C=C/C(=O)NS(=O)(=O)/C=C/c2ccccc2)n1Cc1ccc(C#Cc2ccccc2)cc1Cl [Example 54, (E)-3-(4-chloro-1-(2-chloro-4-(phenylethynyl)benzyl)-2-ethylimidazol-5-yl)-N-((E)-2-phenylethenesulfonyl)-2-propenamide] | 233 to 234 °C
Cc1nc(Cl)c(/C=C/C(=O)NS(=O)(=O)/C=C/c2ccccc2)n1Cc1ccc(OCC2CCCC2)cc1Cl [Example 21, (2E)-3-(4-chloro-1-(2-chloro-4-((cyclopentyl)methyloxy)benzyl)-2-methylimidazol-5-yl)-N-(((E)-2-phenylethenyl)sulfonyl)-2-propenamide] | 200 to 201 °C
CCCCCS(=O)(=O)NC(=O)/C=C/c1c(Cl)nc(CC)n1Cc1ccc(C#Cc2ccccc2)cc1Cl [Example 57, (E)-3-(4-chloro-1-(2-chloro-4-(phenylethynyl)benzyl)-2-ethylimidazol-5-yl)-N-(1-pentanesulfonyl)-2-propenamide] | 161 to 163 °C
Cc1nc(Cl)c(/C=C/C(=O)NS(=O)(=O)/C=C/c2ccccc2)n1Cc1ccc(-c2ccccc2)cc1Cl [Example 12, (E)-3-(4-chloro-1-(2-chloro-4-phenylbenzyl)-2-methylimidazol-5-yl)-N-(((E)-2-phenylethenyl)sulfonyl)-2-propenamide] | 240 to 241 °C
CCCCCOc1ccc(Cn2c(/C=C(\Cc3cccnc3)C(=O)NS(=O)(=O)/C=C/c3ccccc3)cnc2C)c(Cl)c1 [Example 69, (E)-3-(1-(2-chloro-4-(1-pentyloxy)benzyl)-2-methylimidazol-5-yl)-2-((3-pyridyl)methyl)-N-((E)-2-phenylethenesulfonyl)-2-propenamide] | 156 to 158 °C

Test system: db/db mice
Assay: Blood sugar level depressing activity in db/db mice
Type: in vivo
Conditions: female db/db mice; dose 3.2 mg/kg; drug-mixed diet given for 14 days; difference between db/db control group and +/+ mice taken as 100%
Procedure: (Blood Sugar Level Depressing Activity in db/db Mice)
Female C57BL/KsJ-dbm db+/db+, C57BL/KsJ-dbm +m/+m (Jackson Laboratory) mice (5 weeks old) were purchased and subjected to the test after 2–3 weeks of acclimating period.
The test drug was mixed with a powder diet (CE-2, Clea Japan, Inc.) in a mortar. In the case of administration in 100 mg/kg, the mixing proportion was 0.1%, in the case of 30 mg/kg, the proportion was 0.03% and in the case of 10 mg/kg, the proportion was 0.01%. The diet was changed twice a week for each group. The amount of the diet given and the amount left were recorded and the diet intake was calculated by determining the difference.
The female db/db mice were grouped according to body weight, blood sugar level and triglyceride concentration in plasma. […] The blood sugar value, triglyceride concentration in plasma and insulin concentration in plasma were measured at day 0 and day 14, and blood sugar value and triglyceride concentration in plasma were measured at day 7. Body weight was measured at day 0, day 7 and day 14. […]
Blood sugar value was measured using 10–15 μl of plasma and in accord with glucose oxidase method (glucose CII-Test Wako, Wako Pure Chemicals Co., Ltd.). The triglyceride concentration in plasma was measured using 10–15 μl of plasma and in accord with GPO-p-chlorophenol method (triglyceride G-Test Wako) or GPO-DAOS method (triglyceride E-Test Wako). […]

SMILES | Blood sugar decrease (%)
Cc1ccc(S(=O)(=O)NC(=O)/C=C/c2c(Cl)nc(C)n2Cc2ccc(-c3ccccc3)cc2Cl)cc1 [Compound A, (E)-3-[4-chloro-1-(2-chloro-4-phenylbenzyl)-2-methylimidazol-5-yl]-N-((4-methylbenzene)sulfonyl)-2-propenamide] | 63%

— patent publication US7060721B1, “Imidazole compounds and medicinal use thereof” (Fujisawa Pharmaceutical Co., Ltd., priority 1998, dated 2006)
